The assay deals with T1, HIV-1 protease (Human immunodeficiency virus type 1 group M subtype B, UniProt P04585).
T1 construct: The protease (or proteinase), consisting of only 99 amino acids, is among the smallest enzymes known
The experiment in a line: In vitro HIV protease inhibitory assay (HIV Protease FITC Assay). It counts as biochemical. Conditions: for inhibition at 0.123 µM / inhibition at 0.37 µM / inhibition at 1.1 µM / inhibition at 3.3 µM / inhibition at 10 µM / inhibition at 30 µM: read-out: HIV-1 Protease % Inhib. The procedure, abridged: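 Percent inhibition was read as fluorescence after avidin-bead capture and filtration separated FITC cleavage product from biotinylated substrate. Enzyme and substrate reacted 1 h, RT, dark, at pH 5.5 (0.1 M sodium acetate, 1.0 M NaCl, 0.05% NP-40).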

The structures appear in SMILES notation. Where two headings read alike, the source gives them in different places.

For `CCC(Cc1ccccc1)c1cc(O)c(C(c2cccc(NC(=O)Nc3ccc(OC)cc3)c2)C2CC2)c(=O)o1` (stereo not drawn) [Example 214, 3-(α-Cyclopropyl-meta-[(4-methoxyphenylaminocarbonyl)amino]benzyl)-6-(α-ethylphenethyl)-4-hydroxy-2H-pyran-2-one], for the setting “HIV-1 Dose 0.123 uM”, the inhibition at 0.123 µM was less than 10%. Where the note is “HIV-1 Dose 0.370 uM”, the inhibition at 0.37 µM was less than 10%. Further, the inhibition at 1.1 µM (HIV-1 Dose 1.100 uM) was determined as 32%. Also, where the note is “HIV-1 Dose 3.300 uM”, the inhibition at 3.3 µM is 66%. The inhibition at 10 µM (HIV-1 Dose 10.000 uM) came to 79.5%. Besides, the inhibition at 30 µM (HIV-1 Dose 30.000 uM) turned out to be 86%.
For `CCC(Cc1ccccc1)c1cc(O)c(C(c2cccc(NC(=O)Nc3ccc(Br)cc3)c2)C2CC2)c(=O)o1` (stereo not drawn) [Example 215, 3-(α-Cyclopropyl-meta-[(4-bromophenylaminocarbonyl)amino]benzyl)-6-(α-ethylphenethyl)-4-hydroxy-2H-pyran-2-one], the inhibition at 0.123 µM (HIV-1 Dose 0.123 uM) was less than 10%. Besides, the inhibition at 0.37 µM (HIV-1 Dose 0.370 uM) was less than 10%. The inhibition at 1.1 µM (HIV-1 Dose 1.100 uM) is less than 10%. Besides, the inhibition at 3.3 µM (HIV-1 Dose 3.300 uM) worked out at 16.1%. Also, under “HIV-1 Dose 10.000 uM”, the inhibition at 10 µM came to 23.1%. For the same compound, for the setting “HIV-1 Dose 30.000 uM”, the inhibition at 30 µM worked out at 28.8%.
Consider `CCC(Cc1ccccc1)c1cc(O)c(C(c2cccc(NC(=O)NS(=O)(=O)c3ccccc3)c2)C2CC2)c(=O)o1` (stereo not drawn) [Example 216, 3-(α-Cyclopropyl-meta-[(phenylsulfonylaminocarbonyl)amino]benzyl)-6-(α-ethylphenethyl)-4-hydroxy-2H-pyran-2-one], for which, for the setting “HIV-1 Dose 0.123 uM”, the inhibition at 0.123 µM was less than 10%. The inhibition at 0.37 µM (HIV-1 Dose 0.370 uM) stood at 29.8%. Further, the inhibition at 1.1 µM (HIV-1 Dose 1.100 uM) is 61.1%. Moreover, the inhibition at 3.3 µM (HIV-1 Dose 3.300 uM) came out at 85.6%. For the same compound, under “HIV-1 Dose 10.000 uM”, the inhibition at 10 µM turned out to be 91.5%. For the same compound, the inhibition at 30 µM (HIV-1 Dose 30.000 uM) was determined as 90.5%. For the setting “read-out: HIV-1 FITC Ki”, the Ki was found to be 122 nM.
For the compound `CCCCC1(Cc2ccccc2)CC(O)=C(C(C=Cc2ccccc2)c2ccccc2)C(=O)O1` (centres unmarked) [Example 217, 2H-Pyran-2-one, 6-butyl-5,6-dihydro-3-(1,3-diphenyl-2-propenyl)-4-hydroxy-6-phenylmethyl-], where the note is “HIV-1 Dose 0.123 uM”, the inhibition at 0.123 µM is less than 10%. Further, for the setting “HIV-1 Dose 0.370 uM”, the inhibition at 0.37 µM is less than 10%. In addition, the inhibition at 1.1 µM (HIV-1 Dose 1.100 uM) is less than 10%. The inhibition at 3.3 µM (HIV-1 Dose 3.300 uM) amounted to 33.1%. Also, for the setting “HIV-1 Dose 10.000 uM”, the inhibition at 10 µM came out at 62.4%. The inhibition at 30 µM (HIV-1 Dose 30.000 uM) was 69.1%.
As to `CCCCC1(Cc2ccccc2)CC(O)=C(C(CCc2ccccc2)c2ccccc2)C(=O)O1` (centres unmarked) [Example 218, 2H-Pyran-2-one, 6-butyl-5,6-dihydro-3-(1,3-diphenylpropyl)-4-hydroxy-6-phenylmethyl-], for the setting “HIV-1 Dose 0.123 uM”, the inhibition at 0.123 µM is less than 10%. For the setting “HIV-1 Dose 0.370 uM”, the inhibition at 0.37 µM was less than 10%. For the same compound, the inhibition at 1.1 µM (HIV-1 Dose 1.100 uM) is 21.2%. In addition, the inhibition at 3.3 µM (HIV-1 Dose 3.300 uM) came out at 46%. Besides, under “HIV-1 Dose 10.000 uM”, the inhibition at 10 µM came to 59.3%. The inhibition at 30 µM (HIV-1 Dose 30.000 uM) was found to be 58.2%.
Regarding `C=CC(C1=C(O)CC(CCCC)(Cc2ccccc2)OC1=O)c1ccccc1` (centres unmarked) [Example 219, 2H-Pyran-2-one, 6-butyl-5,6-dihydro-4-hydroxy-6-phenylmethyl-3-(1-phenyl-2-propenyl)-], the inhibition at 0.123 µM (HIV-1 Dose 0.123 uM) is less than 10%. Under “HIV-1 Dose 0.370 uM”, the inhibition at 0.37 µM was less than 10%. Further, the inhibition at 1.1 µM (HIV-1 Dose 1.100 uM) is 35.3%. Moreover, the inhibition at 3.3 µM (HIV-1 Dose 3.300 uM) turned out to be 65.6%. The inhibition at 10 µM (HIV-1 Dose 10.000 uM) was determined as 79.7%. In addition, where the note is “HIV-1 Dose 30.000 uM”, the inhibition at 30 µM amounted to 90.2%.
Regarding `CCCCC1(Cc2ccccc2)CC(O)=C(C(CC)c2ccccc2)C(=O)O1` (centres unmarked) [Example 220, 2H-Pyran-2-one, 6-butyl-5,6-dihydro-4-hydroxy-6-phenylmethyl-3-(1-phenylpropyl)-], the inhibition at 0.123 µM (HIV-1 Dose 0.123 uM) is less than 10%. Further, the inhibition at 0.37 µM (HIV-1 Dose 0.370 uM) is less than 10%. Besides, where the note is “HIV-1 Dose 1.100 uM”, the inhibition at 1.1 µM is 21.3%. Further, the inhibition at 3.3 µM (HIV-1 Dose 3.300 uM) came to 51.6%. Besides, where the note is “HIV-1 Dose 10.000 uM”, the inhibition at 10 µM came out at 68.4%. In addition, under “HIV-1 Dose 30.000 uM”, the inhibition at 30 µM worked out at 62.2%.
On to `CCC(Cc1ccccc1)c1cc(O)c(C(c2cccc(NC(=O)[C@H](C)NC(=O)OC(C)(C)C)c2)C2CC2)c(=O)o1` (stereo partly drawn) [Example 221, 3-(α-Cyclopropyl-meta-(tert-butyloxycarbonyl-L-alanylamino)benzyl)-6-(α-ethylphenethyl)-4-hydroxy-2H-pyran-2-one], for which the inhibition at 0.123 µM (HIV-1 Dose 0.123 uM) turned out to be 43.1%. Moreover, the inhibition at 0.37 µM (HIV-1 Dose 0.370 uM) was 72.1%. Further, the inhibition at 1.1 µM (HIV-1 Dose 1.100 uM) amounted to 87.3%. Further, the inhibition at 3.3 µM (HIV-1 Dose 3.300 uM) came to 102%. Besides, where the note is “HIV-1 Dose 10.000 uM”, the inhibition at 10 µM amounted to 108%. For the same compound, under “HIV-1 Dose 30.000 uM”, the inhibition at 30 µM is 101%. In addition, the Ki (read-out: HIV-1 FITC Ki) was 14.6 nM.
Turning to `CCC(Cc1ccccc1)c1cc(O)c(C(c2cccc(NC(=O)[C@H](Cc3cn(S(=O)(=O)c4ccc(C)cc4)cn3)NC(=O)OC(C)(C)C)c2)C2CC2)c(=O)o1` (stereo partly drawn) [Example 222, 3-(α-Cyclopropyl-meta-(N-α-tert-butyloxycarbonyl-N-im-p-toluenesulfonyl-L-histidylamino)benzyl)-6-(α-ethylphenethyl)-4-hydroxy-2H-pyran-2-one], the inhibition at 0.123 µM (HIV-1 Dose 0.123 uM) was found to be 19%. For the same compound, the inhibition at 0.37 µM (HIV-1 Dose 0.370 uM) came out at 51.7%. Besides, the inhibition at 1.1 µM (HIV-1 Dose 1.100 uM) amounted to 75.8%. The inhibition at 3.3 µM (HIV-1 Dose 3.300 uM) was found to be 91%. Moreover, the inhibition at 10 µM (HIV-1 Dose 10.000 uM) was determined as 98.3%. In addition, the inhibition at 30 µM (HIV-1 Dose 30.000 uM) is 95.8%. For the same compound, the Ki (read-out: HIV-1 FITC Ki) was found to be 18.5 nM.
In the case of `CCC(Cc1ccccc1)c1cc(O)c(C(c2cccc(NS(=O)(=O)c3ccc(Cl)cc3)c2)C2CC2)c(=O)o1` (stereo not drawn) [Example 224, 3-(α-Cyclopropyl-meta-(4-chlorophenylsulfonylamino)benzyl)-6-(α-ethylphenethyl)-4-hydroxy-2H-pyran-2-one], the Ki amounted to 14.7 nM, the inhibition at 0.123 µM came out at 46.9%, the inhibition at 0.37 µM amounted to 76.9% and the inhibition at 1.1 µM is 99.6%. For the same compound, the inhibition at 3.3 µM was 97.1%, the inhibition at 10 µM was 110% and the inhibition at 30 µM was 105%.
Take `CCC(Cc1ccccc1)c1cc(O)c(C(c2cccc(NC(=O)CC[C@H](NC(=O)OCc3ccccc3)C(=O)OCc3ccccc3)c2)C2CC2)c(=O)o1` (stereo partly drawn) [Example 225, 3-(α-Cyclopropyl-meta-(N-benzyloxycarbonyl-O-α-benzyl-L-glutamylamino)benzyl)-6-(α-ethylphenethyl)-4-hydroxy-2H-pyran-2-one]: the inhibition at 0.123 µM (HIV-1 Dose 0.123 uM) was less than 10%. For the same compound, under “HIV-1 Dose 0.370 uM”, the inhibition at 0.37 µM is less than 10%. Besides, where the note is “HIV-1 Dose 1.100 uM”, the inhibition at 1.1 µM was less than 10%. The inhibition at 3.3 µM (HIV-1 Dose 3.300 uM) is 21%. Moreover, the inhibition at 10 µM (HIV-1 Dose 10.000 uM) is 30.6%. The inhibition at 30 µM (HIV-1 Dose 30.000 uM) came out at 35.5%.
On to `CCC(Cc1ccccc1)c1cc(O)c(C(c2cccc(NC(=O)[C@H](Cc3c[nH]cn3)NC(=O)OC(C)(C)C)c2)C2CC2)c(=O)o1` (stereo partly drawn) [Example 226, 3-(α-Cyclopropyl-meta-(N-α-tert-butyloxycarbonyl-L-histidylamino)benzyl)-6-(α-ethylphenethyl)-4-hydroxy-2H-pyran-2-one], for which the inhibition at 0.123 µM came to 73.4%, the inhibition at 0.37 µM stood at 93.9%, the inhibition at 1.1 µM was 106% and the inhibition at 3.3 µM was 104%. Moreover, the inhibition at 10 µM came to 101% and the inhibition at 30 µM worked out at 98.3%. Also, where the note is “read-out: HIV-1 FITC Ki”, the Ki came out at 4 nM.
Turning to `CCC(Cc1ccccc1)c1cc(O)c(C(c2cccc(NC(=O)c3ccc(C#N)cc3)c2)C2CC2)c(=O)o1` (centres unmarked) [Example 227], the inhibition at 0.123 µM (HIV-1 Dose 0.123 uM) is less than 10%. The inhibition at 0.37 µM (HIV-1 Dose 0.370 uM) amounted to 19.6%. Further, the inhibition at 1.1 µM (HIV-1 Dose 1.100 uM) turned out to be 49.2%. Further, the inhibition at 3.3 µM (HIV-1 Dose 3.300 uM) is 80.2%. The inhibition at 10 µM (HIV-1 Dose 10.000 uM) came to 89.8%. The inhibition at 30 µM (HIV-1 Dose 30.000 uM) was found to be 85.4%.

(Values after patent EP1203770A1 (priority 1992, dated 1994).)
